Patent US4888287A, “Rapid differentiation of fungi from bacteria using polyene antibiotics” (Eastman Kodak Company, priority 1986, dated 1989)

Assays:
[1] = system: E. coli; assay: Inhibition of RIND XXXV reduction by E. coli, microtitration plate, fluorescence (Example 2, Table III); type: cell-based, Escherichia coli (ATCC 25922); conditions: Escherichia coli, 0.5 h, E. coli (gram -), 37° C., 30 min, read-out: Corrected Percent Inhibition
Description: (§1) gram-negative microorganism Escherichia coli (ATCC 25922), gram-positive microorganism Staphylococcus aureus (ATCC 25923), and Candida albicans yeast cells (ATCC 14053), brain heart infusion broth (BHI) and Sabaroud's dextrose broth (SAB) from Difco Laboratories (Detroit, Michigan, U.S.A.), and Aspergillus flavus (ATCC 20047), a mold from American Type Culture Collection (Rockville, Maryland, U.S.A.).
(§2) E. coli and S. aureus were grown overnight in BHI broth at 37° C. C. albicans and A. flavus were grown overnight at 25° C. in SAB broth with agitation. The cells were harvested by centrifugation, washed and resuspended in 0.05 molar N-2-hydroxyethylpiperazine-N'-2-ethanesulfonic acid (HEPES) buffer (pH 7.8).
(§3) Dispersions containing RIND compounds were prepared by dissolving, for example, RIND VII from Table I above in N,N-dimethylformamide (DMF) at 16 mg compound per ml of solvent. An aliquot (250 μl) of the resulting solution was added to 500 μl of TRITON X-100 surfactant. This mixture was then added dropwise with stirring to 25 ml of 0.05 molar HEPES buffer. A solution containing a water-compatible RIND compound (for example, RIND XXXV) was prepared by dissolving the compound in N,N-dimethylformamide which had been acidified with 0.1% sulfuric acid (16 mg RIND compound per ml of solvent).
(§4) A composition was prepared from the following components: 100 μl RIND XXXV solution (16 mg RIND compound per ml of acidified N,N-dimethylformamide), 200 μl glucose solution (10% in water), 200 μl trimethyl-1,4-benzoquinone ETA solution (1.5 mg/ml methanol) and 10 ml HEPES buffer.
(§5) Test solutions were prepared using the following reagents: 50 μl HEPES buffer, 50 μl filipin polyene antibiotic (12.5 mg/ml dimethylsulfoxide)(serial dilutions of buffer and antibiotic solutions were performed to obtain various antibiotic concentrations), 50 μl of the appropriate cell suspensions, that is, E. coli (about 10^8 cells/ml), S. aureus (about 10^8 cells/ml), C. albicans (about 10^7 cells/ml) and A. flavus, and […] of the RIND composition described above.
(§6) Control solutions were prepared as described in Example 1. Relative fluorescence was measured using a Dynatech MICROFLUOR Reader (Dynatech Laboratories, Alexandria, Virginia) modified to read at excitation 540 nm and emission 620 nm, at zero time and after incubation at 37° C. for 30 minutes. The change in relative fluorescence was then determined as the difference of the two values.

[2] = system: A. flavus; assay: Inhibition of RIND XXXV reduction by A. flavus (mold), microtitration plate, fluorescence (Example 2, Table III); type: cell-based, Aspergillus flavus (ATCC 20047); conditions: Aspergillus flavus, 0.5 h, 37° C., 30 min, read-out: Corrected Percent Inhibition
Description: as §1, §2, §3, §4, §5, §6

[3] = system: E. coli; assay: Inhibition of MTT tetrazolium salt reduction by E. coli, microtitration plate (Example 3, Table IV); type: cell-based, Escherichia coli (ATCC 25922); conditions: Escherichia coli, 0.5 h, E. coli (gram -), 540 nm, 37° C., 30 min, read-out: Corrected Percent Inhibition
Description: as §1, §2
(§7) The differentiations of yeast and mold from bacteria were carried out in microtitration plates. The cell suspensions used were like those described in Example 2. The reducible compound used was 3-(4,5-dimethyl-2-thiazolyl)-2,5-diphenyl-2H-tetrazolium bromide (MTT). A composition containing MTT was prepared with the following components: 200 μl MTT solution (5 mg/ml methanol), 200 μl glucose solution (10% glucose in water), 200 μl trimethyl-1,4-benzoquinone ETA and 12 ml of HEPES buffer (0.05 molar, pH 7.8).
as §5, with “components:” for “reagents:”, “suspension, i.e.” for “suspensions, that is,”, “MTT” for “RIND”, “noted” for “described”, “above. Cell Controls contained all reagents except the antibiotic. Background was measured with buffer. Solution Controls contained all reagents except cells.” for “above.”
(§8) Optical density measurements were made at 540 nm using a commercially available spectrophotometer, and the change in optical density (ΔOD) was determined after 30 minutes at 37° C. […] It is apparent that the concentration effective for differentiation of yeast is different than for mold. However, it is well within the skill of a worker in the art to determine the appropriate concentration for a given test.

[4] = system: C. albicans; assay: Inhibition of MTT tetrazolium salt reduction by C. albicans, microtitration plate (Example 3, Table IV); type: cell-based, Candida albicans (ATCC 14053); conditions: Candida albicans, 0.5 h, C. albicans (yeast), 540 nm, 37° C., 30 min, read-out: Corrected Percent Inhibition
Description: as §1, §2, §7
as §5, with “components:” for “reagents:”, “suspension, i.e.” for “suspensions, that is,”, “MTT” for “RIND”, “noted” for “described”, “above. Cell Controls contained all reagents except the antibiotic. Background was measured with buffer. Solution Controls contained all reagents except cells.” for “above.”
as §8

[5] = system: E. coli; assay: Inhibition of RIND XXXV reduction by E. coli, dry analytical element (Example 4, Table V); type: cell-based, Escherichia coli (ATCC 25922); conditions: E. coli (gram -), 37° C., 30 min
Description: as §1, §2
Dispersions containing RIND compounds were prepared by dissolving, for example, RIND VII from Table I above in N,N-dimethylformamide (DMF) at 16 mg compound per ml of solvent. An aliquot (250 μl) of the resulting solution was added to 500 μl of TRITON X-100 surfactant. […]
A standard paper punch was used to cut circular elements (about 0.6 cm in diameter) from the dried strips. […] Buffer solution was applied to separate elements for background readings.
Relative fluorescence (excitation at 540 nm and emission at 620 nm) was measured using a Dynatech MICROFLUOR reader at zero time and after 30 minutes incubation at 37° C., and the change in relative fluorescence was determined.

Question: What does the source list for `CCCCC[C@@H](O)[C@H]1C(=O)O[C@H](C)[C@@H](O)/C=C/C=C/C=C/C=C/C=C(\C)[C@@H](O)C[C@H](O)C[C@H](O)C[C@H](O)C[C@H](O)C[C@H](O)C[C@@H]1O` [Filipin, filipin]?
Answer: inhibition at 260 µg/mL ([1]; 0.26 mg/ml): 0%; inhibition at 520 µg/mL ([1]; 0.52 mg/ml): 0%; inhibition at 1040 µg/mL ([1]; 1.04 mg/ml): 2%; inhibition at 2080 µg/mL ([1]; 2.08 mg/ml): 17.6%; inhibition at 260 µg/mL ([2]; 0.26 mg/ml): 31.9%; inhibition at 520 µg/mL ([2]; 0.52 mg/ml): 42.5%; inhibition at 1040 µg/mL ([2]; 1.04 mg/ml): 49.8%; inhibition at 2080 µg/mL ([2]; 2.08 mg/ml): 64.9%; inhibition at 260 µg/mL ([3]; 0.26 mg/ml): 0%; inhibition at 520 µg/mL ([3]; 0.52 mg/ml): 0%; inhibition at 1040 µg/mL ([3]; 1.04 mg/ml): 0%; inhibition at 2080 µg/mL ([3]; 2.08 mg/ml): 0%; inhibition at 260 µg/mL ([4]; 0.26 mg/ml): 10.3%; inhibition at 520 µg/mL ([4]; 0.52 mg/ml): 50%; inhibition at 1040 µg/mL ([4]; 1.04 mg/ml): 60.3%; inhibition at 2080 µg/mL ([4]; 2.08 mg/ml): 100%; Corrected Percent Inhibition [5]: 18%
